Assay results taken from PMC10781878, “AMWEst, a new thermostable and detergent-tolerant esterase retrieved from the Albian aquifer” (Applied Microbiology and Biotechnology, 2024).

Tested on: T1, AMWEst
T1 construct: primer keeps native start codon (predicted signal peptide 1-22, LHA-EQ); ultrafiltered extracellular medium, not purified; about 50 kDa on SDS-PAGE, probably N-glycosylated
Test: spectrophotometric p-nitrophenol release at […] nm, Lineweaver-Burk plot
Type: biochemical, uncultured bacterium
Conditions: 50 mM Tris/HCl pH 8.5, 40 mM CaCl2, 60 °C, 20 min; substrate 0.1-10 mM; concentrated extracellular medium of recombinant yeast

Km: 1.02 mM
SMILES: CCCCCCCCCCCC(=O)Oc1ccc([N+](=O)[O-])cc1 [pNP12, p-nitrophenyl laurate]
